PubChem BioAssay (NCI)
“And” between values parts separate entries of the source, which are not always exact repeats. Identical values can stand only once.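 48-hour exposure; five concentrations; linearly interpolated endpoints. Here, GI50 denotes the concentration required for 50% inhibition of growth. At the TGI there is no net growth.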

Tested on: P388/ADR leukemia
Assay: NCI tumour cell line growth inhibition, 48 h

| SMILES | TGI [nM] | GI50 |
| --- | --- | --- |
| COc1ccc(C(=O)/C(Br)=C/C(=O)O)cc1 | 108000 | – |
| N#Cc1cn(C2OC(CO)C(O)C2O)c2ncnc(N)c12 (configuration not stated) | – | 12.7 nM and 45 nM |
